The source of these data is PMC5890689 (RSC Advances, 2018).

For one assay, the system named is A549 (lung cancer). The experiment in a line: SRB assay, A549. The conditions noted are these: Homo sapiens, A549, 72 h, read-out: GI50 A549. On the technique in general: In SRB staining, fixed cells bind dye roughly in proportion to their protein.
The target of the next assay is CDK9/cyclin T1 (Homo sapiens, UniProt P50750). The experiment in a line: CDK9/cyclin T1 kinase assay. In kind it is biochemical.
Assay [1] concerns MCF-7 (Michigan Cancer Foundation-7). In words: SRB assay, MCF-7. The conditions noted are these: Homo sapiens, MCF7, 72 h, read-out: GI50 MCF-7.
Assay [2] relates to MDA-MB-231 (human breast carcinoma cell line). In words: SRB assay, MDA-MB-231. The conditions noted are these: MDA-MB-231, 72 h, read-out: GI50 MDA-MB-231.
For assay [3], the system named is KB (nasopharyngeal carcinoma). In words: SRB assay, KB. The conditions noted are these: Homo sapiens, 72 h, read-out: GI50 KB.
The next assay concerns the target CDK2/cyclin A (Homo sapiens, UniProt P24941). The experiment in a line: CDK2/cyclin A kinase assay. In kind it is biochemical.
The subject of a further assay is MDA-MB-231 cells. In words: Cell cycle analysis by flow cytometry. The conditions noted are these: 24 h, five-fold GI50 (2a 6.0 μM, 2d 8.0 μM, 3b 10.5 μM). In kind it is cell-based, human. (In general: In flow cytometry, cells or beads pass a laser one at a time.)

“Also recorded” adds a separate entry of the source.

Chain of CDK9/cyclin T1 (P50750 whole entry): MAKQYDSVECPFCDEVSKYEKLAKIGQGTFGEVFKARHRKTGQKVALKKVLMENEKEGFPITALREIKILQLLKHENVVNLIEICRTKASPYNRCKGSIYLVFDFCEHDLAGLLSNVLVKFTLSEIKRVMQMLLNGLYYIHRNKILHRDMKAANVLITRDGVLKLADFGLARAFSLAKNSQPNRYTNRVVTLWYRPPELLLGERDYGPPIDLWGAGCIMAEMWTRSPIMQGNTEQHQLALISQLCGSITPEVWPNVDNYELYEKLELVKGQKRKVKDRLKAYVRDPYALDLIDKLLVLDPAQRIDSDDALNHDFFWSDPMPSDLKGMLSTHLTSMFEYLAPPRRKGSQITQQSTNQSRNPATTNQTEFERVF
Chain of CDK9/cyclin T1 (O60563 whole entry partner): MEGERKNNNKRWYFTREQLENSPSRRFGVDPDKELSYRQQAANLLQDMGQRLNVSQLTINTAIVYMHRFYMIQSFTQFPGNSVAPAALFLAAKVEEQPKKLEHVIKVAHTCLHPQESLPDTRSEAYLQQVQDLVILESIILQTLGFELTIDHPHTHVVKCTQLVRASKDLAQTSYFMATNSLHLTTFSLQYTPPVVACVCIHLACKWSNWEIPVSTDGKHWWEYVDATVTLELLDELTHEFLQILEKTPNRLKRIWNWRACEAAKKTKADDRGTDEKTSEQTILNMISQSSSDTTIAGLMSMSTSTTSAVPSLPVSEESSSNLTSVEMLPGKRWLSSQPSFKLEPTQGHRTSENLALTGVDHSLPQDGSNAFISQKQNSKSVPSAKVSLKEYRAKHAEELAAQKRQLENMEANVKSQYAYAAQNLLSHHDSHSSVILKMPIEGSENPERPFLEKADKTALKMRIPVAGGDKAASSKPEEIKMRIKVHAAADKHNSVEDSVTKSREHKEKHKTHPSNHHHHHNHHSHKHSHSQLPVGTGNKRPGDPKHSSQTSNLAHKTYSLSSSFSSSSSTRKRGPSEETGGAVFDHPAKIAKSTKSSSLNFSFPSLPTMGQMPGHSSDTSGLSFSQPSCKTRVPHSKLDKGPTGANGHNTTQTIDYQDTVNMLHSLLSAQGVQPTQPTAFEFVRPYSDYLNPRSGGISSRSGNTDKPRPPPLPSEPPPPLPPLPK

Take `COc1ccc(Nc2nc(Nc3cccc(NC(=O)CN(C)C)c3)ncc2F)cc1` [2a, 2-(Dimethylamino)-N-(3-((5-fluoro-4-((4-methoxyphenyl)amino)pyrimidin-2-yl)amino)phenyl)acetamide]: the GI50 was determined as 720 ± 10 nM in the assay with A549 (lung cancer), 670 ± 60 nM in assay [1], 1200 ± 60 nM in assay [2] and 570 ± 10 nM in assay [3]. For the same compound, the IC50 against CDK9/cyclin T1 was found to be 300 ± 10 nM; against CDK2/cyclin A it was 320 ± 280 nM. The “Effect on cell cycle progression” value in the assay with MDA-MB-231 cells is recorded as “induced cell cycle arrest in G2/M phase; also recorded: induced cell cycle arrest at G2/M”.
With `CC(=O)c1ccc(Nc2nc(Nc3cccc(NC(=O)CN(C)C)c3)ncc2F)cc1` [2b, N-(3-((4-((4-Acetylphenyl)amino)-5-fluoropyrimidin-2-yl)amino)phenyl)-2-(dimethylamino)acetamide], the GI50 in the assay with A549 (lung cancer) was determined as 2330 ± 30 nM; in assay [1], 3800 ± 240 nM; in assay [2] it was 5800 ± 80 nM; in assay [3] it was 2200 ± 370 nM. Besides, the IC50 is 390 ± 80 nM against CDK9/cyclin T1 and 780 ± 40 nM on CDK2/cyclin A.
As to `CN(C)CC(=O)Nc1cccc(Nc2ncc(F)c(Nc3ccc(Cl)cc3)n2)c1` [2c, N-(3-((4-((4-Chlorophenyl)amino)-5-fluoropyrimidin-2-yl)amino)phenyl)-2-(dimethylamino)acetamide], the concentration for 50% growth inhibition (GI50) was determined as 2120 ± 260 nM with A549 (lung cancer), 3940 ± 310 nM in assay [1], 6770 ± 380 nM in assay [2] and 2030 ± 320 nM in assay [3]. Also, the figures for the IC50 at CDK9/cyclin T1 and at CDK2/cyclin A were 1100 ± 20 nM and 910 ± 110 nM, respectively.
Turning to `CN(C)CC(=O)Nc1cccc(Nc2ncc(F)c(Nc3ccc(N(C)C)cc3)n2)c1` [2d, 2-(Dimethylamino)-N-(3-((4-((4-(dimethylamino)phenyl)amino)-5-fluoropyrimidin-2-yl)amino)phenyl)acetamide], the GI50 stood at 1890 ± 190 nM in the assay on A549 (lung cancer), 2830 ± 30 nM in assay [1], 1640 ± 150 nM in assay [2] and 3080 ± 160 nM in assay [3]. Besides, the values for the IC50 at CDK9/cyclin T1 and at CDK2/cyclin A were 320 ± 50 nM and 940 ± 430 nM, respectively. In addition, the “Effect on cell cycle progression” value in the assay with MDA-MB-231 cells is listed as “induced cell cycle arrest in G2/M phase; also recorded: induced cell cycle arrest at G2/M”.
With `CN(C)CC(=O)Nc1cccc(Nc2ncc(F)c(Nc3c(F)cccc3F)n2)c1` [2e, N-(3-((4-((2,6-Difluorophenyl)amino)-5-fluoropyrimidin-2-yl)amino)phenyl)-2-(dimethylamino)acetamide], the GI50 with A549 (lung cancer) was 1310 ± 70 nM; in assay [1], 4490 ± 30 nM; in assay [2] it was 3980 ± 160 nM; in assay [3], 4780 ± 380 nM.
As for `CN(C)CC(=O)Nc1cccc(Nc2ncc(F)c(Nc3c(Cl)cccc3Cl)n2)c1` [2f, N-(3-((4-((2,6-Dichlorophenyl)amino)-5-fluoropyrimidin-2-yl)amino)phenyl)-2-(dimethylamino)acetamide], the GI50 worked out at 3470 ± 440 nM in the assay with A549 (lung cancer), 6020 ± 510 nM in assay [1], 13000 ± 380 nM in assay [2] and 7040 ± 80 nM in assay [3]. Besides, the IC50 against CDK9/cyclin T1 stood at 570 ± 120 nM; against CDK2/cyclin A it was 1600 ± 110 nM.
`CN(C)CC(=O)Nc1cccc(Nc2ncc(F)c(Nc3cc(F)cc(F)c3)n2)c1` [2g, N-(3-((4-((3,5-Difluorophenyl)amino)-5-fluoropyrimidin-2-yl)amino)phenyl)-2-(dimethylamino)acetamide]: the GI50 stood at 710 ± 60 nM in the assay with A549 (lung cancer), 670 ± 30 nM in assay [1], 4640 ± 60 nM in assay [2] and 560 ± 80 nM in assay [3]. Also, the IC50 against CDK9/cyclin T1 turned out to be 490 ± 270 nM; against CDK2/cyclin A it was 570 ± 50 nM.
As for `CN(C)CC(=O)Nc1cccc(Nc2ncc(F)c(NN3CCN(C)CC3)n2)c1` [2h, 2-(Dimethylamino)-N-(3-((5-fluoro-4-((4-methylpiperazin-1-yl)amino)pyrimidin-2-yl)amino)phenyl)acetamide], the GI50 (with A549 (lung cancer); in assay [1]; in assay [2]; in assay [3]) was greater than 10000 nM in each case. Besides, the IC50 at CDK9/cyclin T1 was 2200 ± 320 nM; against CDK2/cyclin A it was 5600 ± 530 nM.
`CN(C)CC(=O)Nc1cccc(Nc2ncc([N+](=O)[O-])c(Nc3c(F)cccc3F)n2)c1` [2i, N-(3-((4-((2,6-Difluorophenyl)amino)-5-nitropyrimidin-2-yl)amino)phenyl)-2-(dimethylamino)acetamide]: the concentration for 50% growth inhibition (GI50) in the assay on A549 (lung cancer) came to 4900 ± 450 nM; in assay [1] it was 10230 ± 30 nM; in assay [2], 5940 ± 330 nM; in assay [3], 5730 ± 350 nM. In addition, the figures for the IC50 against CDK9/cyclin T1 and on CDK2/cyclin A were 480 ± 80 nM and 780 ± 120 nM, respectively.
As for `CC(C)CC(=O)Nc1cccc(Nc2ncc(F)c(Nc3c(F)cccc3F)n2)c1` [3a, N-(3-((4-((2,6-Difluorophenyl)amino)-5-fluoropyrimidin-2-yl)amino)phenyl)-3-methylbutanamide], the GI50 in the assay with A549 (lung cancer) is 720 ± 40 nM; in assay [1], 5970 ± 190 nM; in assay [2], greater than 10000 nM; in assay [3], 590 ± 50 nM. The IC50 against CDK9/cyclin T1 worked out at 480 ± 220 nM; on CDK2/cyclin A, 1100 ± 150 nM.
In the case of `CC(C)(C)NCC(=O)Nc1cccc(Nc2ncc(F)c(Nc3c(F)cccc3F)n2)c1` [3b, 2-(tert-Butylamino)-N-(3-((4-((2,6-difluorophenyl)amino)-5-fluoropyrimidin-2-yl)amino)phenyl)acetamide], the GI50 was determined as 1310 ± 180 nM in the assay with A549 (lung cancer), 2730 ± 480 nM in assay [1], 2070 ± 120 nM in assay [2] and 3270 ± 130 nM in assay [3]. For the same compound, the IC50 at CDK9/cyclin T1 worked out at 80 ± 1 nM; against CDK2/cyclin A, 380 ± 60 nM. Besides, the “Effect on cell cycle progression” value with MDA-MB-231 cells is recorded as “induced cell cycle arrest in G2/M phase; also recorded: induced cell cycle arrest at G2/M”.
Turning to `CN(C)CCC(=O)Nc1cccc(Nc2ncc(F)c(Nc3c(F)cccc3F)n2)c1` [3c, N-(3-((4-((2,6-Difluorophenyl)amino)-5-fluoropyrimidin-2-yl)amino)phenyl)-3-(dimethylamino)propanamide], the GI50 is 1200 ± 50 nM in the assay on A549 (lung cancer), 2650 ± 400 nM in assay [1], 3240 ± 50 nM in assay [2] and 2310 ± 110 nM in assay [3]. The IC50 is 65 ± 23 nM against CDK9/cyclin T1 and 300 ± 70 nM against CDK2/cyclin A.
In the case of `CN1CCC(C(=O)Nc2cccc(Nc3ncc(F)c(Nc4c(F)cccc4F)n3)c2)CC1` [3d, N-(3-((4-((2,6-Difluorophenyl)amino)-5-fluoropyrimidin-2-yl)amino)phenyl)-1-methylpiperidine-4-carboxamide], the GI50 with A549 (lung cancer) stood at 1090 ± 30 nM; in assay [1], 6160 ± 140 nM; in assay [2], 3300 ± 230 nM; in assay [3], 2600 ± 450 nM. Further, the figures for the IC50 at CDK9/cyclin T1 and against CDK2/cyclin A were 660 ± 20 nM and 130 ± 20 nM, respectively.
With `CN(C)CCNC(=O)c1cccc(Nc2ncc(F)c(Nc3c(F)cccc3F)n2)c1` [3e, 3-((4-((2,6-Difluorophenyl)amino)-5-fluoropyrimidin-2-yl)amino)-N-(2-(dimethylamino)ethyl)benzamide], the concentration for 50% growth inhibition (GI50) in the assay on A549 (lung cancer) is 720 ± 10 nM; in assay [1] it was 6730 ± 230 nM; in assay [2], 5420 ± 350 nM; in assay [3], 3820 ± 110 nM. For the same compound, the IC50 against CDK9/cyclin T1 turned out to be 230 ± 10 nM; against CDK2/cyclin A, 750 ± 140 nM.
On to `COc1ccc(Nc2ncc(F)c(Nc3c(F)cccc3F)n2)cc1NC(=O)CN(C)C` [3i, N-(5-((4-((2,6-Difluorophenyl)amino)-5-fluoropyrimidin-2-yl)amino)-2-methoxyphenyl)-2-(dimethylamino)acetamide], for which the GI50 in the assay with A549 (lung cancer) stood at 700 ± 2 nM; in assay [1], 1880 ± 120 nM; in assay [2], 4050 ± 140 nM; in assay [3], 2870 ± 240 nM.
On the same counts, the results for `Cc1ccc(Nc2ncc(F)c(Nc3c(F)cccc3F)n2)cc1NC(=O)CN(C)C` [3j, N-(5-((4-((2,6-Difluorophenyl)amino)-5-fluoropyrimidin-2-yl)amino)-2-methylphenyl)-2-(dimethylamino)acetamide] are 1150 ± 80 nM, 2370 ± 620 nM, 5310 ± 190 nM and 600 ± 40 nM.
On the same counts, the results for `CN(C)CC(=O)Nc1ccc(Nc2ncc(F)c(Nc3c(F)cccc3F)n2)cc1` [3k, N-(4-((4-((2,6-Difluorophenyl)amino)-5-fluoropyrimidin-2-yl)amino)phenyl)-2-(dimethylamino)acetamide] are 3040 ± 180 nM, 4480 ± 390 nM, 6010 ± 80 nM and 3800 ± 340 nM.
Turning to `CN1CCN(c2cccc(Nc3ncc(F)c(Nc4c(F)cccc4F)n3)c2)CC1` [3m, N ^4-(2,6-Difluorophenyl)-5-fluoro-N^2-(3-(4-methylpiperazin-1-yl)phenyl) pyrimidine-2,4-diamine], the GI50 in the assay on A549 (lung cancer) turned out to be 1250 ± 80 nM; in assay [1], 7760 ± 520 nM; in assay [2], 2840 ± 670 nM; in assay [3] it was 400 ± 90 nM. Besides, the figures for the IC50 at CDK9/cyclin T1 and against CDK2/cyclin A were 290 ± 2 nM and 470 ± 40 nM, respectively.
As to `CN1CCCN(c2cccc(Nc3ncc(F)c(Nc4c(F)cccc4F)n3)c2)CC1` [3n, N ^4-(2,6-Difluorophenyl)-5-fluoro-N^2-(3-(4-methyl-1,4-diazepan-1-yl)phenyl) pyrimidine-2,4-diamine], the GI50 in the assay on A549 (lung cancer) worked out at 710 ± 10 nM; in assay [1] it was 7160 ± 540 nM; in assay [2], 4770 ± 270 nM; in assay [3], 4440 ± 420 nM. For the same compound, the IC50 against CDK9/cyclin T1 stood at 1600 ± 100 nM; against CDK2/cyclin A, 950 ± 270 nM.
In the case of `Cc1ccc(Nc2ncc(F)c(Nc3c(F)cccc3F)n2)cc1N1CCOCC1` [3o, N ^4-(2,6-difluorophenyl)-5-fluoro-N^2-(4-methyl-3-morpholinophenyl)pyrimidine-2,4-diamine], the GI50 in the assay on A549 (lung cancer) is 850 ± 10 nM; in assay [1] it was 3750 ± 280 nM; in assay [2] it was 7000 ± 60 nM; in assay [3] it was 980 ± 50 nM. Moreover, the results for the half-inhibitory concentration (IC50) at CDK9/cyclin T1 and against CDK2/cyclin A were 740 ± 40 nM and 5600 ± 30 nM, respectively. For the same compound, on CDK9/cyclin T1 (ratio of IC50 CDK2/cyclin A to CDK9/cyclin T1), the “subtype selectivity for CDK9 over CDK2” value is on record as 7.5 fold.

As a reminder, the GI50 is the concentration at which growth is held to half of that of the control. For orientation: IC50 means the midpoint of a concentration-inhibition curve. High values mean weaker potency, low ones greater potency.
